According to patent publication US20240307363A1, “METHODS FOR TREATING A PULMONARY DISEASE WITH AN ALK-5 (TGF BETA R1) INHIBITOR” (Thirona Bio, Inc., priority 2021, published 2024):
Read-outs that look alike come from different tables or passages of the source.

Tests used:
[1] = dogs, chronic (>3 months) administration; cited from earlier work
[2] = rats, chronic (>3 months) administration; cited from earlier work
[3] = system: heart valves; details: preclinical animal model; all heart valves at all doses tested; cited from earlier work
[4] = system: bleomycin model; details: cited from earlier work
[5] = system: bleomycin-induced pulmonary fibrosis; details: bleomycin-challenged rats, cited from earlier work
[6] = cited from earlier work
[7] = cynomolgus monkey, in vivo; cited from earlier work
[8] = system: luc-CT26 tumor outgrowth in the lungs; assay: Efficacy study in a syngeneic lung cancer model (luc-CT26 cells i.v., lung bioluminescence); type: in vivo; details: BALB/c mice
Description: Compound 3 may be used to suppress tumor growth in the lungs of a syngeneic cancer model when administered alone or in combination with an immunotherapeutic agent. Six- to eight-week old BALB/c mice are used for in vivo efficacy studies in accordance with IACUC guidelines. Firefly luciferase-expressing CT-26 mouse colon carcinoma cells (luc-CT26, CSC-RR0237, Creative Biogene, Shirley, NY, USA) are grown at 37° C. in a 5% CO2 humidified atmosphere in Dulbecco's Modified Eagle's Medium (D6429, Dominique Dutscher, Brumath, France) supplemented with 10% foetal bovine serum (500105NIDD, Dominique Dutscher), 0.2% glucose (19002-013, Gibco, Thermo Fisher Scientific, Hampton, NH, USA), 2 mM L-[…], Dominique Dutscher), 100 U/ml penicillin and 100 μg/ml streptomycin (15140155, Gibco, Thermo Fisher Scientific). Cell suspensions are prepared by enzymatic treatment with trypsin-EDTA (11560626, Thermo Fisher Scientific). Luc-CT26 cells (2×10^5 cells/mouse) are injected intravenously into BALB/c mice to generate the cancer model in which tumor outgrowth in the lungs is observed. Following injection of CT26 cells and starting on day 6, the mice are monitored 3 times a week (i.e., day 6, day 8, day 11, day 13, etc.) using an IVIS spectrum imaging system (Caliper, PerkinElmer) after ip injection of D-luciferin. […] Body weight is measured twice weekly.

[9] = Intrinsic clearance in human liver microsomes; type: in vitro ADME; details: pH 7.4, 0.1 μM test compound, 0.1 mg/mL protein, 1 mM NADPH
Description: Assay methods that evaluate the intrinsic clearance (CLINT) in human liver microsomes (HLMs) have been described in the art (Drug Metab. Dispos., (2005), 33(9), 1304-1311 BMC Pulmonary Medicine (2018), 18(63), 1-13). Representative compounds are tested as follows for their intrinsic clearance (CLINT) in human liver microsomes as follows.
A […] microsomal incubation cofactor solution was prepared with 100 mM potassium phosphate buffered to pH 7.4 (BD Biosciences, Woburn, Mass.) supplemented with 2 mM NADPH (Sigma-Aldrich, St. Louis, Mo.). 10 mM DMSO stocks of test compound are diluted and spiked into the cofactor solution to yield a 0.2 μM concentration (0.02% v/v DMSO). Aliquots of frozen human liver microsomes (Bioreclamation IVT, Baltimore Md.) are thawed and diluted into 100 mM potassium phosphate buffer to yield microsomal protein concentrations of 0.2 mg/mL. Cofactor/drug and microsomal solutions are pre-warmed separately for 4 minutes in a water bath held at 37° C. Incubations (n=1) are started by the combination of equal volumes of cofactor/drug solution with microsomal solution. The final concentration of test compound is 0.1 μM with a final […] protein concentration of 0.1 mg/mL and final NADPH concentration of 1 mM. […] Samples are then injected onto an AB Sciex API 4000 triple quadrupole mass spectrometer for quantitation by LC-MS/MS. […]

[10] = system: bleomycin-induced lung fibrosis; assay: Efficacy study in bleomycin lung fibrosis model; type: in vivo; details: mice
Description: Compound 3 may be used to prevent and reverse lung fibrosis and improve lung function and exercise capacity. Male C57BL6/J mice (7-9 weeks old) from the Jackson Laboratory (Bar Harbor, ME), are used for efficacy studies. […] Bleomycin (1-5 U/kg) in […] is intratracheally sprayed into mice lightly anaesthetized with isoflurane (5% in 100%02). Control animals receives […] of 0.9% saline. […] Animals are treated until the end of the study (day 21 post-bleomycin administration). Lung Function and Exercise Capacity: Invasive lung function measurements are taken at specified time points following bleomycin. Mice are anesthetized with 2.5 mg sodium pentobarbital (Abbott Labs, IL), and the trachea cannulated. Animals are mechanically ventilated using a computer-controlled piston ventilator (flexiVent, SCIREQ Inc., Montreal, Canada: tidal volume=10 ml/kg, respiratory rate of 150 breaths/min, 3 cmH2O positive end-expiratory pressure). To test exercise capacity animals are placed on a treadmill at a 5% incline at a speed to 10 m/minute and the speed increased 1 m/minute every 4 minutes of the test until exhausted. Baseline exercise capacity for each mouse is assessed 2 days prior to either saline or bleomycin administration and then once weekly after administration at days 6, 12, and 19 post-instillation. Bronchoalveolar Lavage Cell Assessment: Immediately following lung function measurements, mice are exsanguinated, bronchoalveolar lavage fluid (BALF) is collected, and total and differential cell counts are performed. […] Samples are mixed and centrifuged before injection for LC/MS/MS analysis. LC/MS/MS analysis is conducted by gradient HPLC with selective reaction monitoring (SRM). The calibration range was 40-2,000 ng/ml. The LC/MS/MS system used for the analysis consisted of an AB-Sciex API4000 with an electrospray source connected to an Agilent 1200 pump, a Waters 2777 autosampler, and an Agilent 1100 series column oven. Chromatographic analysis is conducted by HILIC HPLC with an Ascentis Express HILIC ([…], 2.7 um) column. The SRM transition is m/z 132 to m/z 41. Histology: After performing lung function measurements, whole lungs (that are not subject to bronchoalveolar lavage) are inflated under 25 cm H2O pressure with 10% neutral buffered formalin through the tracheal cannula and immersed in formalin for at least 24 h. After being processed into paraffin blocks, the lungs are sectioned ([…]) and stained with either hematoxylin and cosin (H&E) or immunolabeled with an anti-collagen I antibody (rabbit polyclonal, Genetex Inc., Irvine, CA), to assess fibrotic changes in the lungs. To determine the fibrosis histopathology score for the lung of each mouse, the entire left and right longitudinal lung sections (at the level of tracheal bifurcation) are scored separately at 100× magnification and the scores were combined (total score range 0-8). Grading criteria are as follows: Grade 0=no apparent fibrosis; Grade 1=minimal fibrosis with rare foci of mostly interstitial alveolar septal fibrosis affecting less than 5% of the entire lung section; Grade 2=mild fibrosis characterized by multiple foci with thickening of alveolar septa by fibrosis and progressing to regions with fibrous deposition within the alveolar spaces with some damage to the alveoli, affecting 5-25% of the entire lung section; Grade 3=moderate fibrosis with multiple or single coalescing large areas of fibrosis effacing the alveoli with definitive damage to pulmonary architecture, affecting 25-50% of the entire lung section; Grade 4=marked fibrosis with severe distortion of pulmonary parenchyma by large contiguous fibrous areas, affecting 50-75% of the entire lung section. For collagen I IHC quantification, glass slides are scanned at 20× using a Zeiss Mirax scanner (Carl Zeiss Microimaging. Thornwood, NY), and digital slides generated were analyzed using Definiens Tissue Studio software (Definiens, Munich, Germany). […]

[11] = rats; cited from earlier work
[12] = target: ALK5 (Homo sapiens (Human), UniProt P36897); assay: In vitro screen for ALK5 kinase inhibition (ALK5 phosphorylation of α-Casein, filter-plate radiometric); type: biochemical; details: ALK5 protein 2 nM final, α-Casein substrate; mean of two or more IC50 values
Sequence of ALK5 (P36897 34-503, species assumed): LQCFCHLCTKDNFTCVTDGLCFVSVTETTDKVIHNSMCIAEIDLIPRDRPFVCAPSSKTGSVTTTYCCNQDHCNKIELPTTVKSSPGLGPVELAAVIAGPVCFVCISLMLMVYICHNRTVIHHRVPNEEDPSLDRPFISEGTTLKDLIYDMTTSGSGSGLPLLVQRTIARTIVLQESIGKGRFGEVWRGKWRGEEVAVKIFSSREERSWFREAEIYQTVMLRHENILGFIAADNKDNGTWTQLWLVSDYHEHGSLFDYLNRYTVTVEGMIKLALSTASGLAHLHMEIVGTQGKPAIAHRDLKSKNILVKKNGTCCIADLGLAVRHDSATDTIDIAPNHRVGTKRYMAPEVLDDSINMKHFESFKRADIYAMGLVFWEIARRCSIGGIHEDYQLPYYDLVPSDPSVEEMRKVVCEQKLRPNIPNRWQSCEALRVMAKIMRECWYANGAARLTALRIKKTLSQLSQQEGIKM
Description: Representative compounds are tested as follows for inhibition of ALK5 autophosphorylation activity and of the ALK5 phosphorylation of α-Casein.
Representative compounds are screened using the assay procedure for ALK5 kinase activity as described below.
In a 96 well filter-bottom plate (Millipore, #MSDV N6B 50), 58 μL Assay Buffer is added to reach well. Add 10 μL of Cold ATP mix in Assay Buffer, then 10 μL of a 1:10 dilution of α-Casein stock. Then add 2 μL of compound being tested (DMSO) at a 50× final concentration. Hot ATP mix (10 μL) is added, and the reaction is started with the addition of 10 μL of a 1:350 dilution of the ALK5 protein (2 nM final) in Assay Buffer with 0.05% BSA (Bovine Serum Albumin). […] The reaction is then stopped with the addition of 100 μL of ice-cold 20% TCA (trichloroacetic acid). The assay is then incubated for at least 1 hour at 4° C., and then the contents of each well are filtered by suction through the filter. The wells are washed three times with 200 μL ice-cold 10% TCA. The plate bottom is blotted before and after removing plastic sub-base, and dried overnight at room temperature. Add 30 μL of scintillation fluid, and count 1 minute per well on a Wallac Tri-Lux scintillation counter.

In the case of `Cc1cccc(-c2nn3c(c2-c2ccnc4ccc(C(N)=O)cc24)CCC3)n1` [Compound 41, galunisertib], the organ toxicities [1] is listed as “caused multiple organ toxicities” and the organ toxicities [2] is listed as “caused multiple organ toxicities”.

In the case of `c1ccc(-c2nc3c(c(-n4ccc5cnccc54)n2)CCC3)nc1` [Compound 47], the heart valve lesions [3] is given as “induced heart valve lesions”.

In the case of `Cc1cccc(-c2[nH]ncc2-c2ccc(F)c(-c3cnn(CCO)c3)c2)n1` [Compound R-268712], the antifibrotic efficacy [4] is listed as “strong antifibrotic efficacy”.

For `Cc1ccc(Oc2ccnc(Nc3ccc(S(N)(=O)=O)cc3)c2)c(C)n1` [Compound 48], the heart valve lesions [3] is given as “induced heart valve lesions”.

In the case of `Cc1cccc(-c2[nH]c(C(C)(C)C)nc2-c2ccc3nccnc3c2)n1` [SB-525334], the “parameters of lung function” value ([5]; after onset of fibrosis, vs vehicle-treated controls) is listed as “significant dose-dependent improvements” and the pulmonary pathology [5] is listed as “significant reduction”.

For “Fresolimumab: a “pan” TGF-β antibody capable of neutralizing all human isoforms of TGF-β”, the adverse events ([6]; human, in vivo) is given as “bleeding and anemia issues”, the clinical anti-fibrotic efficacy ([6]; scleroderma patients) is given as “clear clinical anti-fibrotic efficacy” and the “epithelial hyperplasia of the gingiva, bladder and nasal turbinate epithelium” value [7] is given as “induce an epithelial hyperplasia”.

For `Cc1cccc(-n2ncc(C)c2-c2cc3cnccc3s2)n1` [Compound 3, 2-[4-methyl-1-(6-methylpyridin-2-yl)-1H-pyrazol-5-yl]thieno[3,2-c]pyridine], the “bioluminescence intensity (BLI) in the lungs” value ([8]; Compound 3 alone, intranasal) was “Statistically significant reduction”, the “efficacy as measured by reduction in BLI” value ([8]; combination with an immunotherapeutic agent) was “increased efficacy” and the CLint scaled at 0.1 μM [9] was 199 mL/min/kg. For the same compound, the HP content ([10]; 4-hydroxyproline, intranasal) was “significant reduced”, the bleomycin-induced lung fibrosis ([10]; dosed intranasally, prophylactic or therapeutic, until day 21) was “prevents and/or reverses” and the “collagen 1 assessed by IHC” value ([10]; intranasal) was “reduced”. For the same compound, the “fibrosis histopathology scores in the lung” value ([10]; intranasal) was “improvements”, the lung function ([10]; intranasal) was “significantly improved” and the exercise capacity ([10]; intranasal, treadmill) was “increased”.

For `O=C(NC1CCOCC1)c1ccc(-c2cc(-c3c[nH]nc3-c3ccccn3)ccn2)cc1` [Compound 46], the physeal dysplasia [11] is listed as “induced physeal dysplasia”.

In the case of `CCc1cnn(-c2cccc(C)n2)c1-c1cc2cnccc2s1` [Compound 7], the IC50 [12] is reported as 4.33 nM.
